Source: patent US20110213021A1, “COMPOSITIONS AND METHODS FOR TREATING NOS-ASSOCIATED DISEASES” (Indigene Pharmaceuticals, Inc., priority 2008, published 2011)
pIC50: −log10 of the molar value.

Assays:
[1] = tested on: human HL-60 cells; assay: superoxide O2- secretion from PMA-stimulated HL-60 cells (cytochrome C reduction); format: cell-based; conditions: 0.25 h, 30 nM PMA-stimulated HL-60 cells, 15 min at 37° C.
Method: In addition, the effect on superoxide O2 secretion was measured. This assay quantifies the secretion of superoxide O2^− from phorbol 12-mysirate 13-acetate (PMA)-stimulated human HL-60 cells, by the measurement of cytochrome C reduction. The test salt (as a 10-fold concentrated solution in H2O), reference compound or water (control) are pre-incubated for 15 min at 37° C. with HL-60 cells (5×10^5 cells) suspended in a buffer containing 137 mM NaCl, 2.68 mM KCl, 0.9 mM CaCl2, 0.5 mM MgCl2, 8.1 mM Na2HPO4, 1.47 mM KH2PO4 (pH 7.4 ) and 19 μM cytochrome C. The absorbance is then measured at λ=550 nm using a spectrophotometer to detect any compound interference with the photometric detection at this wavelength. Thereafter, the reaction is initiated by the addition of 30 nM PMA and the mixture is incubated for 15 min at 37° C. in the dark. For basal control measurements, the incubation medium also contains 275 U/ml superoxyde dismutase (SOD) to catalyze the destruction of superoxide O2^−. […] The absorbance is then measured at λ=550 nm and the activity is determined by subtracting signal measured in the presence of SOD from that measured in its absence. This assay may be performed using the standard inhibitory reference compound, diphenyleneiodonium, which may be tested in each experiment at several concentrations to obtain an inhibition curve from which its IC50 value is calculated. […]

[2] = biological target: T1, inducible NOS (Mus musculus, UniProt P29477); assay: inducible NOS activity assay (formation of nitrite from arginine, Griess reagent); format: biochemical
T1 construct: using an enzyme isolated from LPS-+INFγ-treated mouse macrophages; endogenous in cells; host or cells: LPS + IFN-gamma-treated mouse macrophages (enzyme isolated from the cells)
Method: First, an inducible NOS activity assay was performed on the recrystallized salt of Example 2. This assay measures the formation of nitrite from arginine using an enzyme isolated from LPS-+INFγ-treated mouse macrophages. In this assay, the test salt (as a 10-fold concentrated solution in H2O), reference compound or water (control) are incubated for 180 min at 37° C. with the enzyme (0.5 U) in a buffer containing 40 mM Tris-HCl (pH 8.0), 0.5 mM NADPH, 4 μM FAD, 12 μM BH4, 3 mM DTT and 0.1 mM L-arginine. For basal control measurements, the enzyme is omitted from the incubation medium. Following incubation, Griess reagent containing 0.05% naphtylene diamine, 0.5% sulfanilamide and 2.5% orthophosphoric acid is added and the samples are incubated for 10 min at 22° C. The amount of nitrite produced is then quantified with a microplate reader (Spectrafluorplus, Tecan) by measuring the absorbance at λ=550 nm. The results are expressed as IC50 in M. This assay may be performed using the standard inhibitory reference compound, I400 W, which may be tested in each experiment at several concentrations to obtain an inhibition curve from which its IC50 value is calculated. Further information regarding this protocol may be found in Tayeh and Marletta (1989), Macrophage oxidation of L-arginine to nitric oxide, nitrite, and nitrate, J. Biol. Chem., 264: 19654.

[3] = tested on: rat liver microsomes; assay: lipid peroxidation: ascorbic acid-induced production of malonaldehyde in liver microsomes; format: biochemical; conditions: 0.1 mM ascorbic acid, 20 min at 37° C.
Method: Furthermore, the effect on lipid peroxidation quantified by the measurement of ascorbic acid-induced production of malonaldehyde in rat liver microsomes. Specifically, homogenates of liver microsomes (150 μg) are pre-incubated for 5 min at 37° C. with the test salt (as a 10-fold concentrated solution in H2O), reference compound or water (control) in a buffer containing 300 mM NaCl, 0.1 mM FeCl3 and 8 mM NaH2PO4/Na2HPO4 (pH 7.4). Thereafter, the reaction is initiated by the addition of 0.1 mM ascorbic acid and the mixture is incubated for 20 min at 37° C. For basal control measurements, ascorbic acid is omitted from the incubation medium. These measurements are also used to detect any compound interference with the photometric detection at the selected wavelength. Following incubation, the reaction is stopped by the addition of 5 mM EDTA/NaOH. […] The amount of lipid peroxides present in the supernatant is quantified by measuring the absorbance at λ=532 nm using a spectrophotometer. This assay may be performed using the standard inhibitory reference compound N-propyl gallate, which may be tested in each experiment at several concentrations to obtain an inhibition curve from which its IC50 value is calculated. […]

- pIC50 [1]: 3.51
- pIC50 ([2]; enzyme isolated from LPS-+INFγ-treated mouse macrophages, 180 min at 37° C., 0.1 mM L-arginine): 4.43
- nH, inducible NOS activity ([2]; same inhibition curve as the IC50): 0.9
- pIC50 [3]: 2.74
SMILES: CC(C)=NN=C(N)N
